US20240327433A1, “PYRIMIDOPYRAN COMPOUND” (Medshine Discovery Inc., priority 2021, published 2024)
Counter-ions that a name gives are not always drawn.

Key:
p-ERK in GP2D cells = experiment: Assay of p-ERK inhibition in GP2D cells (HTRF); assay type: cell-based; details: 1 hour incubation
Protocol: The cell plate was inoculated in a carbon dioxide incubator at 37° C. overnight; • 2) 2 μL of the compound was weighed and added to 78 μL of the cell medium. After the mixture was mixed thoroughly, 20 μL of the solution of compound was weighed and added to the corresponding well of the cell plate. The cell plate was placed back to the carbon dioxide incubator and incubated for another 1 hour; • 3) After completion of the incubation, the cell supernatant was discarded. 50 μL of 1× cell lysate was added to each well. The mixture was incubated with shaking at room temperature for 30 minutes; • 4) Phospho-ERK1/2 Eu Cryptate antibody and Phospho-ERK1/2 d2 antibody were diluted 20-fold with detection buffer; • 5) 16 μL of cell lysate supernatant was weighed and added into each well of a new 384 white microwell plate, and then 2 μL of the diluted solution of Phospho-ERK1/2 Eu Cryptate antibody and 2 μL of the diluted solution of Phospho-ERK1/2 d2 antibody dilution were added. The mixture was incubated at room temperature for at least 4 hours; • 6) After completion of the incubation, HTRF was read with multi-label analyzer: excitation: 320 nm, emission: 615 nm, 665 nm; • 7). IC50 of the compounds to be assayed was calculated.

KRAS^G12D GP2D = experiment: Anti-cell proliferation effect in tumor cell line GP2D (CellTiter-Glo 3D); assay type: cell-based; details: 120 hours
Protocol: In this assay, the effect of the compounds on inhibiting cell proliferation was studied by detecting the effect of the compounds on the cell activity in vitro in the tumor cell lines AsPC-1 and GP2D.
The tumor cell lines were cultured in a 37° C., 5% CO2 incubator according to the culture conditions indicated in the culture method. Cells were passaged regularly, and cells in logarithmic growth phase were used for plating.
Cells were stained with trypan blue and viable cells were counted.
The cell concentration was adjusted to an appropriate concentration.
To each well of a ULA culture plate was added 135 μL of cell suspension. To the blank control well was added the same volume of culture medium without cells.
After plating, the ULA culture plate was immediately centrifuged at room temperature at 1000 rpm for 10 minutes. Note: After completion of the centrifugation, subsequent operations must be processed carefully to avoid unnecessary shocks.
The culture plate was incubated in a 37° C., 5% CO2, 100% relative humidity incubator overnight.
10× compound working solution (10× working solution in DMSO) was formulated, and then to the ULA culture plate was add 15 μL of 10× compound working solution, and to the vehicle control and blank control was added 15 μL of DMSO-cell culture medium mixture, respectively. […]
The luminescent signal was detected on a 2104 EnVision plate reader. […]

[1] = Plasma protein binding (PPB), equilibrium dialysis, human plasma; assay type: in vitro ADME; details: 2 μM, unbound rate
Protocol: (§1) The protein binding rates of the compound in the plasma of CD-1 mouse, Sprague-Dawley rat, Beagle dog, cynomolgus monkey and human were determined by equilibrium dialysis method.
(§2) The plasmas of the above-mentioned five species were formulated to plasma samples with a compound concentration of 2 μM. The plasma samples were placed in a 96-well rapid equilibrium dialysis device, and dialyzed against phosphate buffered saline at 37±1° C. for 4 h. In this assay, warfarin was used as a control compound. The concentrations of analytes in plasma and dialysis buffer were determined by LC-MS/MS mothed.

[2] = Plasma protein binding (PPB), equilibrium dialysis, Sprague-Dawley rat plasma; assay type: in vitro ADME; details: 2 μM, unbound rate
Protocol: as §1, §2

[3] = PPB assay: recovery rate in the dialysis device (five species plasma); assay type: in vitro ADME; details: CD-1 (mouse), Sprague-Dawley (rat), Beagle (dog), cynomolgus monkey, human
Protocol: as §2, with “The protein binding rates of the compound in the plasma of CD-1 mouse, Sprague-Dawley rat, Beagle dog, cynomolgus monkey and human were determined by equilibrium dialysis method. The plasmas” for “The plasmas”

[4] = system: xenograft tumor of human colon cancer GP2D; experiment: Pharmacodynamics in vivo: Balb/c nude mouse subcutaneous xenograft of human colon cancer GP2D cells; details: PO, BID*20, 20th day
Protocol: A Balb/c nude mouse model of subcutaneously xenograft tumor of human colon cancer GP2D cell was established. 0.2 mL (2×10^6) of GP2D cells (Matrigel was added, and volume ratio was 1:1) were inoculated subcutaneously on the right back of each mouse. When the average tumor volume reached 149 mm^3, the administration was started by group, with 6 mice in each group. On the day of the assay, the animals were administered the corresponding drugs according to the corresponding groups. The first group G1 was set as a negative control group, which was given 5% DMSO+95%(10% HP-β-CD) alone by gavage administration. The second group G2 to the fourth group G4 were given compound 1 hydrochloride, and the dosage and protocol of administration were shown in Table 13.
During the assay, the body weight of animals and the tumor size were measured twice a week. Meanwhile clinical symptoms of animals were observed and recorded every day. Each administration was referenced to the most recent body weight of animals.
The length (a) and width (b) of a tumor were measured with a digital vernier caliper. The calculation formula of tumor volume (Tumor volume, TV) was: TV=a×b^2/2.

With `Cc1cc(N)c(F)c(C2Cc3nc(OC[C@@]45CCCN4C[C@H](F)C5)nc(N4CC5CCC(C4)N5)c3CO2)c1C(F)(F)F` (some centres unmarked) [Compound 1 hydrochloride] as the molecule, how does the IC50 (p-ERK in GP2D cells) read?
The IC50 was 0.8 nM.

What about the IC50 (KRAS^G12D GP2D) of the same molecule?
The IC50 was 37 nM.

And the “Unbound PPB H” value [1]?
Its value is 7.0%.

And the “Unbound PPB R” value [2]?
Its value is 3.0%.

What about the recovery at 4 h, 2 μM [3] of the same molecule?
The recovery at 4 h, 2 μM was 82.4 to 110%.

What about the “Tumor volume inhibition rate TGI (%)” value ([4]; G2, 3 mg/kg) of the same molecule?
The value was 19.4%.

And the “Tumor volume inhibition rate TGI (%)” value ([4]; G3, 10 mg/kg)?
Its value is 53.9%.

What about the “Tumor volume inhibition rate TGI (%)” value ([4]; G4, 30 mg/kg) of the same molecule?
Its value is 83.7%.
